Measurements from paper PMC5066289, “Pharmacokinetics of anidulafungin during venovenous extracorporeal membrane oxygenation” (Critical Care, 2016).
Entries after “also recorded” stand apart in the source; their conditions may differ. Numbered stars: 1 amine (or outer) side, 2 acyl side, 3 side chain; on linkers, the order of the positions; unused ones are H or OH. Bridge positions count the residues as written; N and C are the ends. Square brackets hold non-standard residues; d marks the D form. Peptide text beside a SMILES is read from it. * marks the point of attachment. pTerphenylCO(4''-OnC5H11) = CCCCCOc1ccc(-c2ccc(-c3ccc(C(=O)*)cc3)cc2)cc1; Orn(4R-OH,5R-OH) = O=C([C@H](C[C@@H](O)[C@@H](O)N[*:3])N[*:1])[*:2]; hTyr(3S-OH,4S-OH) = N[C@H](C(=O)O)[C@H](O)[C@@H](O)c1ccc(O)cc1; Pro(3S-OH,4S-Me) = C[C@H]1CN[C@H](C(=O)O)[C@H]1O; Hyp = O=C(O)[C@@H]1C[C@@H](O)CN1

Tests used:
[1] = Non-compartmental pharmacokinetics of anidulafungin in a critically ill patient on venovenous ECMO (plasma and urine, HPLC); type: in vivo, human
Description: Echinocandins are currently considered the first-line treatment for invasive candidiasis (IC) in the intensive care unit (ICU). However, extracorporeal membrane oxygenation (ECMO), a rescue therapy used in patients with severe acute respiratory distress syndrome (ARDS), could alter the pharmacokinetics of certain drugs. We prescribed anidulafungin for suspected IC in a patient with severe ARDS on ECMO and measured the plasma concentrations of the drug using high-performance liquid chromatography (HPLC).
(§1) A patient was admitted to the ICU with septic shock secondary to peritonitis. The anti-infective treatment was based on surgical source control and broad spectrum antimicrobial therapy, including anidulafungin at usual doses. The patient developed severe ARDS. ECMO with Novalung iLA Activve™ was initiated, maintaining ultraprotective ventilation. Femoral (23 F) and jugular (19 F) cannulas (Novalung™, Germany) were inserted with 4.5 L/min blood flow and 4 L/min gas flow. Urine samples and pre-filter and post-filter blood samples were collected before starting the eight-dose anidulafungin infusion and 0.5, 1, 1.5, 2, 4, 6, 8, and 24 h after the infusion ended.
A non-compartmental pharmacokinetic analysis was performed using Abbottbase Pharmacokinetic Systems™ (Abbott Laboratories, Illinois, USA). The maximum and trough plasma concentrations (Cmax and Cmin, respectively) were estimated directly from concentration-time data. The area under the plasma concentration-time curve over the 24-h dosing interval (AUC0–24) was estimated using the linear trapezoidal rule for both pre-filter and post-filter data. Clearance (CL) was estimated as dose/AUC0–24. The apparent volume of distribution at steady state (Vss) was estimated as the product of CL and mean residence time (MRT).

[2] = Tolerability of anidulafungin in the patient on ECMO; type: in vivo, human; conditions: single critically ill patient on venovenous ECMO; usual doses
Description: as §1

SMILES: CCCCCOc1ccc(-c2ccc(-c3ccc(C(=O)N[C@H]4C[C@@H](O)[C@@H](O)NC(=O)[C@@H]5[C@@H](O)[C@@H](C)CN5C(=O)[C@H]([C@@H](C)O)NC(=O)[C@H]([C@H](O)[C@@H](O)c5ccc(O)cc5)NC(=O)[C@@H]5C[C@@H](O)CN5C(=O)[C@H]([C@@H](C)O)NC4=O)cc3)cc2)cc1 [anidulafungin] ({pTerphenylCO(4''-OnC5H11)}-[Orn(4R-OH,5R-OH)]T[Hyp][hTyr(3S-OH,4S-OH)]T[Pro(3S-OH,4S-Me)]; lactam 1-C)
- Clearance (CL) ([1]; single patient on venovenous ECMO, non-compartmental, dose/AUC0-24): 0.933 L/h
- Apparent volume of distribution at steady state (Vss) ([1]; single patient on venovenous ECMO, non-compartmental, product of CL and MRT): 18.9 L
- Urine anidulafungin concentrations ([1]; single patient on venovenous ECMO, urine samples over 24 h, HPLC, limit of detection 0.05 mg/L): negligible; also recorded: very low and close to the limit of detection
- Trough plasma concentration (Cmin) ([1]; single patient on venovenous ECMO, usual doses, eighth dose, plasma, HPLC, estimated directly from concentration-time data): 2.19 mg/L
- Maximum plasma concentration (Cmax) ([1]; single patient with severe ARDS on venovenous ECMO, anidulafungin infusion at usual doses, sampled around the eighth dose, plasma, HPLC, estimated directly from concentration-time data): 13.5 mg/L
- Tolerability / adverse effects [2]: well tolerated without relevant adverse effects
